Test results: patent US20260125346A1, “Isoquinolinone Derivatives and 4H-Quinolizinone Derivatives and Pharmaceutical Compositions Thereof for the Treatment of Disease” (BeOne Medicines I GmbH, priority 2023, published 2026)

Experiments:
[1] = tested on: PI3Kα H1047R mutated cell line T-47D; assay: Phospho-AKT (Ser473) Inhibition Assay (HTRF), T-47D; type: cell-based; settings: for IC50: Homo sapiens, T47D, T-47D, 1 hour treatment, read-out: p-AKT Inhibition assay (S473) IC50 T-47D; for Selectivity: SK-BR-3/T-47D (p-AKT): p-AKT (S473) IC50 ratio
Method in brief: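 Cells seeded overnight in insulin-supplemented MEM, then treated 1 h with 11-point 1:3 compound dilutions (10 μM to 0.1 nM final, 0.1% DMSO). Lysates assayed for phospho-AKT Ser473 by HTRF; IC50 from 4-parameter logistic fit, normalised to DMSO (max) and 10 μM GDC0077 (min).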

[2] = tested on: WT cell line SK-BR-3; assay: Phospho-AKT (Ser473) Inhibition Assay (HTRF), SK-BR-3; type: cell-based; settings: Homo sapiens; SK-BR-3, 1 hour treatment; read-out: p-AKT Inhibition assay (S473) IC50 SK-BR-3
Method in brief: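 SK-BR-3 (PI3Kα WT) cells seeded overnight in MEM with insulin, then treated 1 h with 11-point 1:3 dilutions (10 μM to 0.1 nM, 0.1% DMSO). Lysates read for phospho-AKT Ser473 by HTRF after 4 h antibody incubation at room temperature. IC50 from 4-parameter fit, % inhibition normalized to DMSO (max) and 10 μM GDC0077 (min).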

[3] = molecular target: PI3Kα (p110/p85) kinase (wild type, "WT") (Homo sapiens, UniProt P42336); assay: PI3Kα (p110/p85) kinase ADP-Glo Assay; type: biochemical; settings: 25 uM ATP
Method in brief: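 Wild-type PI3Kα p110/p85 preincubated 30 min at RT with PI(4,5)P2:PS substrate ([…]) and compound ([…]) in HEPES pH7.5 buffer with MgCl2, DTT and BSA; reaction started with 25 µM ATP for 120 min at RT. ADP measured by ADP-Glo luminescence; IC50 from four-parameter logistic fit.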

[4] = tested on: WT cell line SK-BR-3; assay: Cell Proliferation Assay (CellTiter-Glo), SK-BR-3; type: cell-based; settings: Homo sapiens, 72 h; SK-BR-3, 3 days treatment
Method in brief: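 SK-BR-3 cells treated for 3 days with compound in a 9-point series, final concentrations 10 M to 1 nM in 0.1% DMSO. Viability read by CellTiter-Glo luminescence. Relative IC50 from percent inhibition versus medium-only and DMSO controls, four-parameter logistic fit.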

PI3Kα (p110/p85) kinase (wild type, "WT"), sequence (P42336 whole entry): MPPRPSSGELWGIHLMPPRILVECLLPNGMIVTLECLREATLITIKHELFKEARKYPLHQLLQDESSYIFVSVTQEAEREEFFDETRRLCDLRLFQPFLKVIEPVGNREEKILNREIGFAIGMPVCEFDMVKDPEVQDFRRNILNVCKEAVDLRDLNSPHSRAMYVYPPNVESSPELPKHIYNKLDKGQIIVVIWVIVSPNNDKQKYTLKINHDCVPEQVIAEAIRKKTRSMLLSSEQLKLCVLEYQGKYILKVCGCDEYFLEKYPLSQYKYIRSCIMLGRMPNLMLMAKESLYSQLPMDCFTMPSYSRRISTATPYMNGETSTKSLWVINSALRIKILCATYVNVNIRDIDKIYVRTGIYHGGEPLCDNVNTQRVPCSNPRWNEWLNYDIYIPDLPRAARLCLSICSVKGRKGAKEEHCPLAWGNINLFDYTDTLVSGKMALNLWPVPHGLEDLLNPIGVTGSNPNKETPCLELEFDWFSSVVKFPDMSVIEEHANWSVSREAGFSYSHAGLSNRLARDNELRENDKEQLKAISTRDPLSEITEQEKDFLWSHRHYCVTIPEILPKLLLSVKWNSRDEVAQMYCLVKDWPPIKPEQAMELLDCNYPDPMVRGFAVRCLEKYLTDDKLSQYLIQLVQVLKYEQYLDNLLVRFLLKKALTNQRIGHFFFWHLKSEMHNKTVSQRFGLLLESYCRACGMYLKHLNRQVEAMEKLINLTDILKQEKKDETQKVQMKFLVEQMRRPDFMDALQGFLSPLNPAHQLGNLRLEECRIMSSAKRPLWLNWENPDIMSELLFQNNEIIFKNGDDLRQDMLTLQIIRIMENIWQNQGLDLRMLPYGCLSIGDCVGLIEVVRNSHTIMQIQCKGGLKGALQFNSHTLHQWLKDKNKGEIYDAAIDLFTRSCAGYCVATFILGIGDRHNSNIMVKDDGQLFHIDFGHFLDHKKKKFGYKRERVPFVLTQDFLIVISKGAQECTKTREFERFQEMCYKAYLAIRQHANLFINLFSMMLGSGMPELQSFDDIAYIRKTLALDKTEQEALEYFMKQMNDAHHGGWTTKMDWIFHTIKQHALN
PI3Kα (p110/p85) kinase (wild type, "WT"), sequence (P27986 whole entry partner): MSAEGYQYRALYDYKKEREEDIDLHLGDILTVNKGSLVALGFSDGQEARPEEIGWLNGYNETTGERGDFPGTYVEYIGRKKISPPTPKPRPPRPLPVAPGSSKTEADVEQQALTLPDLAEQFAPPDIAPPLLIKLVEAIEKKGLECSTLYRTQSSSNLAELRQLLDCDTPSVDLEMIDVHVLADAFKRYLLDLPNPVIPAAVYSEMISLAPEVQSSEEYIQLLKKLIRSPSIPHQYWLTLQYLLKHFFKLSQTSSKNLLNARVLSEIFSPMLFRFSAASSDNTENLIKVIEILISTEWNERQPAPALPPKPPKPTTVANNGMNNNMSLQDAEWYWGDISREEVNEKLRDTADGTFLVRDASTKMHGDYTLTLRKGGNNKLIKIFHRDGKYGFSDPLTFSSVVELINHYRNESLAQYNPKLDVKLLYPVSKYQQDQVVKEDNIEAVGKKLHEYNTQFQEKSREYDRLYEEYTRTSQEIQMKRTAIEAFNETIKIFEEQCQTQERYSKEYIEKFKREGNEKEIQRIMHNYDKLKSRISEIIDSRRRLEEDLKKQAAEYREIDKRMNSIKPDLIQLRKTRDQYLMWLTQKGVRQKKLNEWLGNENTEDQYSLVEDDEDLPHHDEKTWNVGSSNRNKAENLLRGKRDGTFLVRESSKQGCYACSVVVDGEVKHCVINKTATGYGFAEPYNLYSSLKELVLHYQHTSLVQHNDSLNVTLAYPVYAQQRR

Row | Compound | IC50 [1] | IC50 [2] | IC50 [3] | IC50 [4] | Selectivity: SK-BR-3/T-47D (p-AKT) [1]
1 | COc1ncc(-c2cc3c([C@@H](C)Nc4ccccc4C(=O)O)cc(C)cc3c(=O)n2C)cc1F [Example 59, (R)-2-((1-(3-(5-fluoro-6-methoxypyridin-3-yl)-2,7-dimethyl-1-oxo-1,2-dihydroisoquinolin-5-yl)ethyl)amino)benzoic acid] | 0.0815 µM | > 10 µM | 4.31 µM | > 10 µM | >123
2 | Cc1cc(C(C)Nc2ccccc2C(=O)O)c2cc(-c3cncnc3)n(C)c(=O)c2c1 (stereo not shown) [Example 61, 2-((1-(2,7-dimethyl-1-oxo-3-(pyrimidin-5-yl)-1,2-dihydroisoquinolin-5-yl)ethyl)amino)benzoic acid] | 1.4 µM | > 10 µM | 19.5 µM | > 10 µM | >7.15
3 | Cc1cc(C(C)Nc2ccccc2C(=O)O)c2cc(-c3ccc(C4(O)CC4)cc3)n(C)c(=O)c2c1 (stereo not shown) [Example 62, 2-((1-(3-(4-(1-hydroxycyclopropyl)phenyl)-2,7-dimethyl-1-oxo-1,2-dihydroisoquinolin-5-yl)ethyl)amino)benzoic acid] | 0.13 µM | 2.97 µM | 4.73 µM | > 10 µM | 22.9
4 | Cc1cc(C(C)Nc2ccccc2C(=O)O)c2cc(-c3ccc(F)cc3)n(CC#N)c(=O)c2c1 (stereo not shown) [Example 63, 2-((1-(2-(cyanomethyl)-3-(4-fluorophenyl)-7-methyl-1-oxo-1,2-dihydroisoquinolin-5-yl)ethyl)amino)benzoic acid] | 0.0573 µM | 4.77 µM | 6.14 µM | > 10 µM | 83.3
5 | Cc1cc(C(C)Nc2ccccc2C(=O)O)c2cc(-c3ccc4c(c3)CN(C)C4=O)n(C)c(=O)c2c1 (stereo not shown) [Example 70, 2-((1-(2,7-dimethyl-3-(2-methyl-1-oxoisoindolin-5-yl)-1-oxo-1,2-dihydroisoquinolin-5-yl)ethyl)amino)benzoic acid] | 1.1 µM | > 10 µM | 21.1 µM | > 10 µM | >9.11
6 | Cc1cc(C(C)Nc2ccccc2C(=O)O)c2cc(-c3ccc(C4(O)CCOCC4)cc3)n(C)c(=O)c2c1 (stereo not shown) [Example 73, 2-((1-(3-(4-(4-hydroxytetrahydro-2H-pyran-4-yl)phenyl)-2,7-dimethyl-1-oxo-1,2-dihydroisoquinolin-5-yl)ethyl)amino)benzoic acid] | 0.924 µM | > 10 µM | 26.1 µM | > 10 µM | >10.82
7 | Cc1cc(C(C)Nc2ccccc2C(=O)O)c2cc(-c3ccn(-c4ccccc4)c3)n(C)c(=O)c2c1 (stereo not shown) [Example 77, 2-((1-(2,7-dimethyl-1-oxo-3-(1-phenyl-1H-pyrrol-3-yl)-1,2-dihydroisoquinolin-5-yl)ethyl)amino)benzoic acid] | 0.0843 µM | 2.04 µM | 6.95 µM | > 10 µM | 24.2

Now from value to compound, other results behind:

Row | IC50 [1] | IC50 [2] | IC50 [3] | IC50 [4] | Compound | Selectivity: SK-BR-3/T-47D (p-AKT) [1]
8 | 0.0324 µM | > 10 µM | 2.48 µM | > 10 µM | Cc1cc([C@@H](C)Nc2ccccc2C(=O)O)c2cc(-c3ccc(F)cc3)n(CC#N)c(=O)c2c1 [Example 64, (R)-2-((1-(2-(cyanomethyl)-3-(4-fluorophenyl)-7-methyl-1-oxo-1,2-dihydroisoquinolin-5-yl)ethyl)amino)benzoic acid] | >308
9 | 2.8 µM | > 10 µM | 21.5 µM | > 10 µM | Cc1cc(C(C)Nc2ccccc2C(=O)O)c2cc(-c3cnc(C(C)(C)O)nc3)n(C)c(=O)c2c1 (stereo not shown) [Example 66, 2-((1-(3-(2-(2-hydroxypropan-2-yl)pyrimidin-5-yl)-2,7-dimethyl-1-oxo-1,2-dihydroisoquinolin-5-yl)ethyl)amino)benzoic acid] | >3.57
10 | 1.54 µM | > 10 µM | 13.6 µM | > 10 µM | Cc1cc([C@@H](C)Nc2ccccc2C(=O)O)c2cc(-c3cnc(C(C)(C)O)nc3)n(C)c(=O)c2c1 [Example 67, (R)-2-((1-(3-(2-(2-hydroxypropan-2-yl)pyrimidin-5-yl)-2,7-dimethyl-1-oxo-1,2-dihydroisoquinolin-5-yl)ethyl)amino)benzoic acid] | >6.51
11 | 0.103 µM | > 10 µM | 18.8 µM | > 10 µM | Cc1cc(C(C)Nc2ccccc2C(=O)O)c2cc(-c3ccc(F)cc3)n(C3CCOC3)c(=O)c2c1 (stereo not shown) [Example 69, 2-((1-(3-(4-fluorophenyl)-7-methyl-1-oxo-2-(tetrahydrofuran-3-yl)-1,2-dihydroisoquinolin-5-yl)ethyl)amino)benzoic acid] | >97
12 | 0.102 µM | 5.59 µM | 14.2 µM | > 10 µM | Cc1cc(C(C)Nc2ccccc2C(=O)O)c2cc(-c3ccc(F)cc3)n(-c3nccs3)c(=O)c2c1 (stereo not shown) [Example 71, 2-((1-(3-(4-fluorophenyl)-7-methyl-1-oxo-2-(thiazol-2-yl)-1,2-dihydroisoquinolin-5-yl)ethyl)amino)benzoic acid] | 55.0
13 | 0.633 µM | > 10 µM | 20.5 µM | > 10 µM | Cc1cc(C(C)Nc2ccccc2C(=O)O)c2cc(-c3ccc(N4CCC(C)(O)CC4)nc3)n(C)c(=O)c2c1 (stereo not shown) [Example 72, 2-((1-(3-(6-(4-hydroxy-4-methylpiperidin-1-yl)pyridin-3-yl)-2,7-dimethyl-1-oxo-1,2-dihydroisoquinolin-5-yl)ethyl)amino)benzoic acid] | >15.79
14 | 0.307 µM | 4.39 µM | 13.1 µM | > 10 µM | COC1(c2ccc(-c3cc4c(C(C)Nc5ccccc5C(=O)O)cc(C)cc4c(=O)n3C)cc2)CCOCC1 (stereo not shown) [Example 74, 2-((1-(3-(4-(4-methoxytetrahydro-2H-pyran-4-yl)phenyl)-2,7-dimethyl-1-oxo-1,2-dihydroisoquinolin-5-yl)ethyl)amino)benzoic acid] | 14.3
15 | 0.547 µM | > 10 µM | 31.4 µM | > 10 µM | Cc1cc(C(C)Nc2ccccc2C(=O)O)c2cc(-c3ccc4c(c3)C(=O)N(C)C4)n(C)c(=O)c2c1 (stereo not shown) [Example 75, 2-((1-(2,7-dimethyl-3-(2-methyl-3-oxoisoindolin-5-yl)-1-oxo-1,2-dihydroisoquinolin-5-yl)ethyl)amino)benzoic acid] | >18.29
16 | 0.123 µM | 5.34 µM | 11.8 µM | > 10 µM | Cc1cc(C(C)Nc2ccccc2C(=O)O)c2cc(C3=CCN(c4ccccc4)C3)n(C)c(=O)c2c1 (stereo not shown) [Example 76, 2-((1-(2,7-dimethyl-1-oxo-3-(1-phenyl-2,5-dihydro-1H-pyrrol-3-yl)-1,2-dihydroisoquinolin-5-yl)ethyl)amino)benzoic acid] | 43.5
17 | 1.95 µM | > 10 µM | 65.9 µM | > 10 µM | Cc1cc(C(C)Nc2ccccc2C(=O)O)c2cc(-c3ccc(CN4CCOCC4)nc3)n(C)c(=O)c2c1 (stereo not shown) [Example 78, 2-((1-(2,7-dimethyl-3-(6-(morpholinomethyl)pyridin-3-yl)-1-oxo-1,2-dihydroisoquinolin-5-yl)ethyl)amino)benzoic acid] | >5.12
